Molecular target: T1, mouse Tas2r108 (Mus musculus, UniProt Q9JKT3)
T1 construct: expressed in transfected cells; host or cells: HEK293T-Gα16gust44
T1 sequence (Q9JKT3 1-297): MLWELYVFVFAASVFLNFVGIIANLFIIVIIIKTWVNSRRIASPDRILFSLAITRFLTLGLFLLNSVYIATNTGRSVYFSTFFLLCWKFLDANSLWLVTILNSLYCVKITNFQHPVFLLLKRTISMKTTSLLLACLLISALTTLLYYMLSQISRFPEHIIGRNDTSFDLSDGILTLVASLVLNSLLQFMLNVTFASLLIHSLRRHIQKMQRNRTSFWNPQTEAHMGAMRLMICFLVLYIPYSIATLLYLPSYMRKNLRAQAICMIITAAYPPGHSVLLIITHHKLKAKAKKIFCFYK
Test: Calcium imaging assay (FLIPR), HEK293T-Gα16gust44 cells transfected with mouse Tas2r108
Format: cell-based
Protocol: This set of bile acids was chosen because of their commercial availability in high purities, their diversity within the class of bile acids and their previous detection and quantitation in human blood. Stock solutions were prepared in DMSO.
As basal growth medium for the HEK293T-Gα16gust44 cell line[17],[59] served Dulbecco’s modified eagle medium (DMEM) (Thermo Fisher Scientific, Darmstadt, Germany) supplemented with 10 % fetal bovine serum (Sigma-Aldrich, Steinheim, Germany), 2 mM L-glutamine (Sigma-Aldrich, Steinheim, Germany), 100 units/ml penicillin (Sigma Aldrich, Steinheim, Germany) and 100 µg/ml streptomycin (Sigma Aldrich, Steinheim, Germany). Growth conditions were 37 °C, 5 % CO2 and saturated air-humidity[60].
HEK293T-Gα16gust44 cells were seeded on poly-D-lysine (10 µg/ml) coated 96-well plates to reach a confluence of 40-60 % the next day. For transient transfection 150 ng of plasmid DNA containing the receptor of interest and 0.3 µl lipofectamine 2000 (Thermo Fisher Scientific, Darmstadt, Germany) per well were used and transfection took place according to the manual of lipofectamine 2000. […] The empty vector DNA (mock) was transfected as negative control[14],[41].
Cells were loaded using the calcium-sensitive fluorescent dye Fluo-4-AM (Abcam, Cambridge, Great Britain) in the presence of 2.5 mM probenecid (Sigma-Aldrich, Steinheim, Germany) the day after transfection[13],[41]. 1 h after loading, cells were washed with C1 buffer using a BioTek Cell Washer, incubated in the dark for half an hour and washed again. For automated agonist application and measurement of fluorescence changes, a FLIPR^TETRA device (Molecular Devices, San José, United States) was used. Viability of cells was tested by application of 100 nM Somatostatin 14 (Bachem, Bubendorf, Switzerland)[42].
Measured data were negative control corrected by subtracting the signal of the mock-transfected cells and exported to Microsoft Excel using the FLIPR software ScreenWorks 4.2. In Microsoft Excel software, standardization of maximum fluorescence intensities to the basal fluorescence and normalization to the buffer-only control was done to calculate the relative fluorescence changes (ΔF/F).
Initial screening experiments performed in duplicate wells were confirmed by at least one replication and representative traces were selected for display. All dose-response relationships were determined by three independent experiments (biological replicates) performed in duplicates (technical replicates). Threshold concentrations, defined as lowest substance concentrations leading to statistically significant elevated fluorescence changes in receptor-transfected cells compared with empty vector-transfected cells, were determined using SigmaPlot with Student’s t-test to evaluate statistical significance (p < 0.01).

In the case of C[C@H](CCC(=O)NCCS(=O)(=O)O)[C@H]1CC[C@H]2[C@@H]3CC[C@@H]4C[C@H](O)CC[C@]4(C)[C@H]3CC[C@]12C [Taurolithocholic Acid, taurolithocholic acid], the RLU (Time 0 s) is reported as 0 RLU, the RLU (Time 2 s) is reported as 0.6757 RLU and the RLU (Time 4 s) is reported as -5.736 RLU. The RLU (Time 6 s) was 6.046 RLU, the RLU (Time 8 s) was 39.2838 RLU and the RLU (Time 12 s) was 8.803 RLU. The RLU (Time 14 s) was 5.215 RLU, the RLU (Time 16 s) was -9.6707 RLU and the RLU (Time 18 s) was -10.699 RLU. For the same compound, the RLU (Time 18.781 s) was 51.1832 RLU, the RLU (Time 20.781 s) was 31.0896 RLU and the RLU (Time 22.781 s) was 17.366 RLU. The RLU (Time 24.781 s) was 13.0906 RLU, the RLU (Time 26.781 s) was 51.6272 RLU and the RLU (Time 28.781 s) was 63.3328 RLU. It also gave an RLU (Time 30.781 s) of 109.429 RLU, an RLU (Time 32.781 s) of 151.07 RLU and an RLU (Time 34.781 s) of 184.905 RLU. It also gave an RLU (Time 36.781 s) of 210.816 RLU, an RLU (Time 38.781 s) of 242.967 RLU and an RLU (Time 40.781 s) of 265.916 RLU. The RLU (Time 42.781 s) was 261.677 RLU, the RLU (Time 44.781 s) was 303.058 RLU and the RLU (Time 46.781 s) was 324.099 RLU. It also gave an RLU (Time 48.781 s) of 311.969 RLU, an RLU (Time 50.781 s) of 342.074 RLU and an RLU (Time 52.781 s) of 343.185 RLU. The RLU (Time 54.781 s) was 378.711 RLU, the RLU (Time 56.781 s) was 389.7 RLU and the RLU (Time 58.781 s) was 401.227 RLU. It also gave an RLU (Time 60.781 s) of 410.325 RLU, an RLU (Time 62.781 s) of 416.305 RLU and an RLU (Time 64.781 s) of 417.574 RLU. The RLU (Time 66.781 s) was 434.462 RLU, the RLU (Time 68.781 s) was 456.387 RLU and the RLU (Time 70.781 s) was 443.293 RLU. For the same compound, the RLU (Time 72.781 s) was 455.898 RLU, the RLU (Time 74.781 s) was 461.633 RLU and the RLU (Time 76.781 s) was 455.071 RLU. The RLU (Time 78.781 s) was 466.188 RLU, the RLU (Time 80.781 s) was 477.183 RLU and the RLU (Time 82.781 s) was 506.736 RLU. For the same compound, the RLU (Time 84.781 s) was 503.228 RLU, the RLU (Time 86.781 s) was 489.189 RLU and the RLU (Time 88.781 s) was 473.872 RLU. The RLU (Time 90.781 s) was 497.168 RLU, the RLU (Time 92.781 s) was 472.229 RLU and the RLU (Time 94.781 s) was 481.838 RLU. For the same compound, the RLU (Time 96.781 s) was 467.082 RLU, the RLU (Time 98.781 s) was 510.678 RLU and the RLU (Time 100.781 s) was 498.898 RLU. The RLU (Time 102.781 s) was 493.381 RLU, the RLU (Time 104.781 s) was 508.478 RLU and the RLU (Time 106.781 s) was 488.526 RLU. For the same compound, the RLU (Time 108.781 s) was 487.641 RLU, the RLU (Time 110.781 s) was 528.304 RLU and the RLU (Time 112.781 s) was 500.584 RLU. It also gave an RLU (Time 114.781 s) of 484.964 RLU, an RLU (Time 116.781 s) of 486.198 RLU and an RLU (Time 118.781 s) of 494.318 RLU. The RLU (Time 120.781 s) was 504.713 RLU, the RLU (Time 122.781 s) was 501.616 RLU and the RLU (Time 124.781 s) was 482.612 RLU. It also gave an RLU (Time 126.781 s) of 503.591 RLU, an RLU (Time 128.781 s) of 486.957 RLU and an RLU (Time 130.781 s) of 500.459 RLU. It also gave an RLU (Time 132.781 s) of 472.597 RLU, an RLU (Time 134.781 s) of 498.526 RLU and an RLU (Time 136.781 s) of 501.497 RLU. The RLU (Time 137.547 s) was 471.412 RLU, the RLU (Time 143.547 s) was 482.177 RLU and the RLU (Time 149.547 s) was 466.386 RLU. The RLU (Time 155.547 s) was 451.788 RLU, the RLU (Time 161.547 s) was 449.152 RLU and the RLU (Time 167.547 s) was 425.382 RLU. For the same compound, the RLU (Time 173.547 s) was 442.283 RLU, the RLU (Time 179.547 s) was 425.607 RLU and the RLU (Time 185.547 s) was 410.079 RLU. The RLU (Time 191.547 s) was 397.165 RLU, the RLU (Time 197.547 s) was 392.705 RLU and the RLU (Time 203.547 s) was 382.875 RLU. For the same compound, the RLU (Time 209.547 s) was 387.748 RLU, the RLU (Time 215.547 s) was 381.118 RLU and the RLU (Time 221.547 s) was 374.673 RLU. For the same compound, the RLU (Time 227.547 s) was 340.738 RLU, the RLU (Time 233.547 s) was 357.908 RLU and the RLU (Time 239.547 s) was 329.058 RLU. For the same compound, the RLU (Time 245.547 s) was 312.353 RLU, the RLU (Time 293.547 s) was 280.532 RLU and the RLU (Time 299.547 s) was 302.8 RLU. The “Activation threshold concentration Tas2r108” value (p < 0.01 vs empty vector) was 1 µM, the RLU (time 305.547 s) was 271.906 RLU and the RLU (time 311.547 s) was 293.129 RLU. For the same compound, the RLU (time 317.547 s) was 296.196 RLU, the RLU (time 323.547 s) was 325.759 RLU and the RLU (time 329.547 s) was 278.402 RLU. It also gave an RLU (time 335.547 s) of 309.885 RLU, an RLU (time 341.547 s) of 315.03 RLU and an RLU (time 347.547 s) of 300.184 RLU. For the same compound, the RLU (time 353.547 s) was 294.817 RLU and the RLU (time 359.547 s) was 274.663 RLU.

From paper PMC10247784, “Physiological activation of human and mouse bitter taste receptors by bile acids” (Communications Biology, 2023)
